Values joined by “and” are separate entries in the source; they are usually repeats but may differ in a detail not shown here. Equal values may be shown once. Where a name gives a salt, the structure may show the parent alone.
Key:
E. coli = experiment: Combination therapy: Gentamycin with PDEA, visible growth; type: cell-based; details: Gentamycin 0 μg/ml
Method: (§1) Different concentrations of Gentamycin in Mueller Hinton were prepared in 3 different concentrations of PDEA. E. coli and S. aureus were inoculated (10^5) and were incubated O/N.
(§2) Readouts were “Clear” and “Foggy”.

S. aureus = experiment: as above; type: cell-based; details: Gentamycin 0 μg/ml
Method: as §1, §2

Candida albicans = experiment: Minimum inhibitory concentration (MIC), visible growth, YPD broth; type: cell-based
Method: • 1. Using a sterile inoculating loop, transfer bacteria/Candida albicans from frozen stock culture and streak them on a fresh LA plate. • 2. Incubate the plate at 37° C. overnight (o/n) (18-24 h).
• 1. Prepare bacterial culture by adding 20 ml Mueller Hinton broth (*) to a 250-ml Erlenmeyer flask with sidearm. • 2. Using a sterile inoculating loop, pick approximately 10 colonies from the o/n bacterial culture and transfer bacteria to the flask. • 3. Incubate the E-flask with bacteria on a rotating shaker at 37° C. until OD590=0.40. This OD should equal an approximate bacterial count of 1×10^8 cfu/ml (**) • This is measured using a colorimeter (or spectrophotometer). Set reference and press R (=reference) first, then measure the bacterial culture by pressing T (=test). • 4. At OD590 0.40, serially dilute the bacterial suspension 1:10 000 in Mueller Hinton broth to obtain a bacterial target concentration of 1×10^4 cfu/ml. Determine the initial inoculation by serially diluting 0.1 ml in 0.9 ml blanks of sterile PBS and plating 0.1 ml aliquots to LA plates, preferably. • 5. Different concentrations of the tested compound are prepared in 0.6-0.8 ml of the final dilution of bacterial suspension and placed in 2-ml test tubes. • 6. Incubate test tubes in an orbital shaker incubator at 37° C. for 24 h.
• 7. Analyze visible growth, i.e. “Foggy” or “Clear”. MIC is being defined as the interval between the highest “Foggy” and the lowest “Clear” concentration of the compound.
(*) When testing Candida albicans, Yeast extract Peptone Dextrose (YPD) broth is being used.
(**) For Candida albicans it is equal to 1×10^7
Different concentrations of PDEA were also prepared in Yeast extract Peptone Dextrose (YPD) broth. Candida albicans were inoculated to a concentration of 20 000 CFU/ml and incubated at 37° C. for 24 hours. Readouts were “Clear” and “Foggy”.
Different concentrations of the quaternary ammonium PDEA (Example 2) were also prepared in Yeast extract Peptone Dextrose (YPD) broth. Candida albicans were inoculated to a concentration of 20 000 CFU/ml and incubated at 37° C. for 24 hours. Readouts were “Clear” and “Foggy”.
Different concentrations of the Para position-PDEA” is (S)-4-pyridylthio cysteamine were also prepared in Yeast extract Peptone Dextrose (YPD) broth. Candida albicans were inoculated to a concentration of 20 000 CFU/ml and incubated at 37° C. for 24 hours. Readouts were “Clear” and “Foggy”.
Different concentrations of “Carboxylic acid PDEA” is 3-(2-Pyridyldithio)propanoic acid (CAS: 68617-64-1) were also prepared in Yeast extract Peptone Dextrose (YPD) broth. Candida albicans were inoculated to a concentration of 20 000 CFU/ml and incubated at 37° C. for 24 hours. Readouts were “Clear” and “Foggy”.

T-24 cells = experiment: Cancer cell viability assay (XTT); type: cell-based, human; details: for % cell survival / Absorbance unit / Absorbance unit - Blank: triplicate, (hydrochloride)
Method: (§3) Two types of human uroepithelial cancer cells (124 and 5637) were tested in an XTT assay. “T24” cells were cultured in McCoy's 5A (Modified) Medium, Catalog number: 16600082 from GIBCO. “5637” cells were cultured in RPMI 1640 Medium, Catalog number: 21875034 from GIBCO. Different concentrations of 2-(Pyridyldithio)ethylamine (hydrochloride) (PDEA) (CAS: 106139-15-5): 12.5, 25, 50, 100 and 200 μM, were prepared in each cell culture medium.
(§4) 1. 5×10^5 cells were seeded into 24-well plate overnight at 37-degree C. in 5% CO2.
(§5) 2. 80% confluent cells were treated with 200 μl medium with different concentrations of PDEA and the control.
(§6) 3. After 24 hrs, medium (MacCoy's 5a for T24, RPMI for 5637) was removed and cells were washed 2 times with 200 μl of pre-warmed PBS/well. 200 μl (96-well) of pre-prepared fresh medium containing XTT-menadione to wells were added (mentioned below).
(§7) 4. Cells were incubated for at least 3 h at 37-degree C. Medium with XTT only in empty wells were served as background control.
(§8) 5. The supernatant was transferred to 96-well plate and the concentration were measured at 450 nm and 690 nm. 690 nm was used as a background measurement and subtracted from 450 nm value.
(§9) Menadione (172.18 g/mol, light sensitive): dissolve 1 mg/ml in absolute ethanol. XTT: 1 mg/ml dissolve in PBS, 0.2 μm filtrate sterilised, store at −20° C. (Sigma X4626). Pre-warm to 37° C. before use.
(§10) Prepare solution: Add 2.15 μl of menadione/ml (final concentration 12.5 μM 0 2.15 mg/l) to 1 ml of XTT directly before use. Prepare XTT-menadione solution equal to 20% of the culture medium volume to be tested.
(§11) Results are shown below and represented graphically in FIGS. 1 and 2. “Blank” is cell culture medium only.

5637 cells = experiment: Cancer cell viability assay (XTT); type: cell-based, human; details: for % cell survival / Absorbance unit / Absorbance unit - Blank: triplicate, (hydrochloride)
Method: as §3, §4, §5, §6, §7, §8, §9, §10, §11

For `NCCSSc1ccccn1` [PDEA, 2-(Pyridyldithio)ethylamine (hydrochloride)], the “Visible growth readout (Clear/Foggy)” value (E. coli; PDEA 0.0125 mM) was “Foggy”, the “Visible growth readout (Clear/Foggy)” value (E. coli; PDEA 0.025 mM) was “Foggy” and the “Visible growth readout (Clear/Foggy)” value (E. coli; PDEA 0.04 mM) was “Clear”. The “Visible growth readout (Clear/Foggy)” value (S. aureus; PDEA 0.0125 mM) was “Foggy”, the “Visible growth readout (Clear/Foggy)” value (S. aureus; PDEA 0.025 mM) was “Foggy” and the “Visible growth readout (Clear/Foggy)” value (S. aureus; PDEA 0.05 mM) was “Foggy”. The visible growth readout (Candida albicans; 0.01 mM) was “Foggy”, the visible growth readout (Candida albicans; 0.025 mM) was “Foggy” and the visible growth readout (Candida albicans; 0.05 mM) was “Foggy”. For the same molecule, the visible growth readout (Candida albicans; 0.1 mM) was “Foggy”, the visible growth readout (Candida albicans; 0.2 mM) was “Foggy” and the visible growth readout (Candida albicans; 0.4 mM) was “Foggy”. The visible growth readout (Candida albicans; 0.8 mM) was “Clear”, the visible growth readout (Candida albicans; 1.6 mM) was “Clear” and the MIC (Candida albicans; Candida albicans, 24 h) was 400 to 800 µM. The “% cell survival” value (T-24 cells; 12.5 μM) was 99.37% and 98.6% and 99.88%, the Absorbance unit (T-24 cells; 12.5 μM) was 1.63 and 1.659 and 1.884 and the “Absorbance unit - Blank” value (T-24 cells; 12.5 μM) was 1.429 and 1.483 and 1.686. The “% cell survival” value (T-24 cells; 25 μM) was 100.1391% and 95.0133% and 97.81%, the Absorbance unit (T-24 cells; 25 μM) was 1.641 and 1.605 and 1.849 and the “Absorbance unit - Blank” value (T-24 cells; 25 μM) was 1.44 and 1.429 and 1.651. For the same molecule, the “% cell survival” value (T-24 cells; 50 μM) was 76.43% and 73.67% and 89.6327%, the Absorbance unit (T-24 cells; 50 μM) was 1.3 and 1.284 and 1.711 and the “Absorbance unit - Blank” value (T-24 cells; 50 μM) was 1.099 and 1.108 and 1.513. For the same molecule, the “% cell survival” value (T-24 cells; 100 μM) was 65.3% and 80.52% and 62.09%, the Absorbance unit (T-24 cells; 100 μM) was 1.14 and 1.387 and 1.246 and the “Absorbance unit - Blank” value (T-24 cells; 100 μM) was 0.939 and 1.211 and 1.048. For the same molecule, the cytotoxicity at 50 µM (T-24 cells; Homo sapiens, T-24, 50 μM PDEA, 24 hrs, read-out: cell viability reduced by) was 10 to 26%, the cytotoxicity at 200 µM (T-24 cells; Homo sapiens, T-24, 200 μM PDEA, 24 hrs, read-out: cell viability reduced by) was 83 to 100% and the “% cell survival” value (5637 cells; 12.5 μM) was 104.6875% and 96.65% and 91.2594%. The Absorbance unit (5637 cells; 12.5 μM) was 1.229 and 1.224 and 1.119, the “Absorbance unit - Blank” value (5637 cells; 12.5 μM) was 1.072 and 1.069 and 0.971 and the “% cell survival” value (5637 cells; 25 μM) was 109.082% and 103.9783% and 102.2556%. For the same molecule, the Absorbance unit (5637 cells; 25 μM) was 1.274 and 1.305 and 1.236, the “Absorbance unit - Blank” value (5637 cells; 25 μM) was 1.117 and 1.15 and 1.088 and the “% cell survival” value (5637 cells; 50 μM) was 115.0391% and 99.55% and 123.5902%. For the same molecule, the Absorbance unit (5637 cells; 50 μM) was 1.335 and 1.256 and 1.463, the “Absorbance unit - Blank” value (5637 cells; 50 μM) was 1.178 and 1.101 and 1.315 and the “% cell survival” value (5637 cells; 100 μM) was 83.4% and 52.8% and 57.42%. For the same molecule, the Absorbance unit (5637 cells; 100 μM) was 1.011 and 0.739 and 0.759, the “Absorbance unit - Blank” value (5637 cells; 100 μM) was 0.854 and 0.584 and 0.611 and the “% cell survival” value (5637 cells; 200 μM) was 3.613% and 3.436% and 4.793%. For the same molecule, the Absorbance unit (5637 cells; 200 μM) was 0.194 and 0.193 and 0.199, the “Absorbance unit - Blank” value (5637 cells; 200 μM) was 0.037 and 0.038 and 0.051 and the cytotoxicity at 100 µM (5637 cells; Homo sapiens, 100 μM PDEA, 24 hrs, read-out: cell viability reduced by) was 17 to 47%. The cytotoxicity at 200 µM (5637 cells; Homo sapiens, 200 μM PDEA, 24 hrs, read-out: cell viability reduced by) was 95 to 100%.

Source: patent US20250339415A1, “DISULFIDE COMPOUNDS AS MEDICAMENTS” (CYTACOAT AB, priority 2021, published 2025)
